Results: patent US20250388544A1, “HETEROAROMATIC INHIBITORS OF ASTACIN PROTEINASES” (VIVORYON THERAPEUTICS N.V., priority 2019, published 2025)

Key:
hMeprin α = molecular target: T1, hMeprin α (Homo sapiens, UniProt Q16819); assay: Enzymatic assay, quenched peptide substrate cleavage, method B; assay type: biochemical; details: geometric mean (geometric SD factor in parentheses); for Ki: Morrison's equation, read-out: Meprin alpha Ki(app); for IC50: read-out: Meprin alpha IC50
T1 sequence (Q16819 66-746): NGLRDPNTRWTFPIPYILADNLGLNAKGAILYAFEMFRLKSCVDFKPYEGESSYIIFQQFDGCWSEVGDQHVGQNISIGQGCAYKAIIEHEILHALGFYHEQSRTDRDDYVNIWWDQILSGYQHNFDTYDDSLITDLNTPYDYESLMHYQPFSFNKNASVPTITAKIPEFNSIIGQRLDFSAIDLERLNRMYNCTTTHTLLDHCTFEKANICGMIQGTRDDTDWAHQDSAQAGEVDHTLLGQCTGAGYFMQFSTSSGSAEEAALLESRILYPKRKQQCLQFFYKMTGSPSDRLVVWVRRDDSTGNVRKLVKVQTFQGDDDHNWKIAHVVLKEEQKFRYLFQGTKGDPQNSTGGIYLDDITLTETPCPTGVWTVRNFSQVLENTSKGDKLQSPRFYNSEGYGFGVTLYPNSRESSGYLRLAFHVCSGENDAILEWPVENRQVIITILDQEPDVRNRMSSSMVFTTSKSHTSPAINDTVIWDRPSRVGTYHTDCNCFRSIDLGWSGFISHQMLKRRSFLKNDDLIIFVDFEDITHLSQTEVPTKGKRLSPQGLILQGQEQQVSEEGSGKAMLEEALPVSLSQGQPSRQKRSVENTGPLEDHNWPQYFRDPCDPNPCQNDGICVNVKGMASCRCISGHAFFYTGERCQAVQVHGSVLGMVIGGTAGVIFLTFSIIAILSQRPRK
Description: (§1) The determination of enzymatic activity was based on the cleavage of internally quenched peptide substrates. A typical assay of 250 μl total volume measured in black 96 well plates consisted of 100 μl buffer, 50 μl enzyme at a final concentration of 5e-8 M to 2e-10 M, 50 μl substrate (0.15 to 80 μM, in buffer, 0.5% DMSO) and 50 μl inhibitor solution (in buffer, 1% DMSO). In case of 125 μl assay volume (black 96 half area well plates) all volumes were cut in half. Enzymatic activity of ADAMs was measured in 384 well plates with 60 μl total assay volume consisting of 20 μl inhibitor, 20 μl buffer, 10 μl enzyme and 10 μl substrate.
(§2) Based on method B Ki^(app) values were determined using Morrison's equation. All measurements were performed using a fluorescence plate reader (FLUOSTAR OPTIMA, BMG Labtech) at 30° C. The kinetic parameters were determined at least in duplicates on separate days. The excitation/emission wavelength was 340/420 nm. The kinetic data was evaluated using GRAFIT software (version 7.0.3, Erithacus Software).

hMeprin β = molecular target: T2, hMeprin β (Homo sapiens, UniProt Q16820); assay: as above; assay type: biochemical; details: geometric mean (geometric SD factor in parentheses); for Ki: Morrison's equation, read-out: Meprin beta Ki(app); for IC50: read-out: Meprin beta IC50
T2 sequence (Q16820 62-701): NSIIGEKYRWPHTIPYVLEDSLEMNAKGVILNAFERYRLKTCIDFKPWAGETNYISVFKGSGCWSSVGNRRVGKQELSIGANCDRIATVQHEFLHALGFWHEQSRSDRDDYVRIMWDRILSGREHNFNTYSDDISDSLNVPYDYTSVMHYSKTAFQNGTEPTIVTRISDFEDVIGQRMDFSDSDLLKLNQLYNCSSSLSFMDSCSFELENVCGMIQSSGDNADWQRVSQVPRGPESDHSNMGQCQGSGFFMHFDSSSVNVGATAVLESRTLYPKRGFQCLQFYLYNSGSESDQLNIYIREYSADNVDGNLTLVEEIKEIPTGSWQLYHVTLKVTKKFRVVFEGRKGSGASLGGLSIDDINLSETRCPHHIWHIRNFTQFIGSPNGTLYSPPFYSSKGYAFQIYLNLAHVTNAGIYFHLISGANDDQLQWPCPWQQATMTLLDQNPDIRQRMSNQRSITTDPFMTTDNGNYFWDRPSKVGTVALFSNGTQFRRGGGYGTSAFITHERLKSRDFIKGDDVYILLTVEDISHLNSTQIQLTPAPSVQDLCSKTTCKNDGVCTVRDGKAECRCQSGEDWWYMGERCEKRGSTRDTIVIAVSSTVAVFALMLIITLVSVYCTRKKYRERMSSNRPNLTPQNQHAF
Description: as §1, §2

Structure (SMILES) | Ki (hMeprin α) [nM] | IC50 (hMeprin α) [nM] | Ki (hMeprin β) [nM] | IC50 (hMeprin β) [nM]
O=C(Cc1c(-c2cccc(C(=O)O)c2)[nH]nc1[C@H]1CC[C@H](C(=O)O)CC1)NO [Example 78, trans-3-[3-(4-Carboxycyclohexyl)-4-[2-(hydroxyamino)-2-oxo-ethyl]-1H-pyrazol-5-yl]benzoic acid] | 20 | 20 | 21 | 21
O=C(Cc1c(-c2cccc(C(=O)O)c2)n[nH]c1-c1ccccc1)NO [Example 51, 3-[4-[2-(Hydroxyamino)-2-oxo-ethyl]-5-phenyl-1H-pyrazol-3-yl]benzoic acid] | 8 | 8 | 47 | 52
O=C(Cc1c(-c2ccc(C(=O)O)cc2)n[nH]c1-c1cccc(C(=O)O)c1)NO [Example 66, 3-[3-(4-Carboxyphenyl)-4-[2-(hydroxyamino)-2-oxo-ethyl]-1H-pyrazol-5-yl]benzoic acid] | 20 | 21 | 32 | 32
O=C(NO)C1Cc2ccccc2-c2[nH]nc(-c3ccccc3)c21 (centres unmarked) [Example 68, 3-Phenyl-4,5-dihydro-1H-benzo[g]indazole-4-carbohydroxamic acid] | 61 | 62 | 2530 | 2600
O=C(Cc1c(-c2ccccc2)[nH]nc1[C@H]1CC[C@@H](C(=O)O)CC1)NO [Example 75, cis-4-[4-[2-(Hydroxyamino)-2-oxo-ethyl)-5-phenyl-1H-pyrazol-3-yl]cyclohexanecarboxylic acid] | 10 | 10 | 35 | 35
O=C(Cc1c(Cc2ccccc2)n[nH]c1-c1ccccc1)NO [Example 46, 2-(3-Benzyl-5-phenyl-1H-pyrazol-4-yl)ethanehydroxamic acid] | 70 | 71 | 1730 | 1780
O=C(Cc1c(-c2cccc(C(=O)O)c2)n[nH]c1-c1cccc(C(=O)O)c1)NO [Example 58, 3-[3-(3-Carboxyphenyl)-4-[2-(hydroxyamino)-2-oxo-ethyl]-1H-pyrazol-5-yl]benzoic acid] | 10 | 11 | 14 | 17
O=C(Cc1c(C2CCCC2)n[nH]c1-c1ccccc1)NO [Example 45, 2-(3-Cyclopentyl-5-phenyl-1H-pyrazol-4-yl)ethanehydroxamic acid] | 6 | 6 | 320 | 327
O=C(CCc1c(-c2ccccc2)nn(Cc2ccc(Cl)c(O)c2F)c1-c1ccccc1)NO [Example 72, 3-[1-[(4-chloro-2-fluoro-3-hydroxy-phenyl)methyl]-3,5-diphenyl-pyrazol-4-yl]propanehydroxamic acid] | 0.15 | 0.22 | 1180 | 1210
O=C(Cn1c(-c2ccc(Cl)c(O)c2F)nc2c(C(=O)O)cccc21)NO [Example 20, 2-(4-Chloro-2-fluoro-3-hydroxy-phenyl)-1-[2-(hydroxyamino)-2-oxo-ethyl]benzimidazole-4-carboxylic acid] | 903 | 908 | 1160 | 1190
O=C(Cc1c(-c2cccc(C(=O)O)c2)n[nH]c1-c1cc(F)c(O)c(Cl)c1)NO [Example 64, 3-[5-(3-Chloro-5-fluoro-4-hydroxy-phenyl)-4-[2-(hydroxyamino)-2-oxo-ethyl]-1H-pyrazol-3-yl]benzoic acid] | 0.14 | 0.24 | 0.24 | 0.26
O=C(Cc1c(-c2c[nH]nc2C(F)(F)F)n[nH]c1-c1ccccc1)NO [Example 70, 2-[5-Phenyl-3-[3-(trifluoromethyl)-1H-pyrazol-4-yl]-1H-pyrazol-4-yl]ethanehydroxamic acid] | 2 | 2 | 88 | 89
O=C(Cn1c(-c2ccc(C(=O)O)cc2)nc2ccccc21)NO [Example 19, 4-[1-[2-(Hydroxyamino)-2-oxo-ethyl]benzimidazol-2-yl]benzoic acid] | 71 | 75 | 119 | 127
O=C(Cn1c(-c2ccc(Cl)c(O)c2F)nc2cc(C(=O)O)ccc21)NO [Example 21, 2-(4-Chloro-2-fluoro-3-hydroxy-phenyl)-1-[2-(hydroxyamino)-2-oxo-ethyl]benzimidazole-5-carboxylic acid] | 435 | 443 | 119 | 125
COc1ccc(-c2n[nH]c(-c3ccccc3)c2CC(=O)NO)cc1 [Example 48, 2-[3-(4-Methoxyphenyl)-5-phenyl-1H-pyrazol-4-yl]ethanehydroxamic acid] | 1 | 1 | 62 | 64
O=C(NO)C1c2ccccc2-c2[nH]nc(-c3ccccc3)c21 (centres unmarked) [Example 67, 3-Phenyl-1,4-dihydroindeno[1,2-c]pyrazole-4-carbohydroxamic acid] | 39 | 40 | 1680 | 1790
O=C(Cc1c(-c2ccc(Cl)c(O)c2F)n[nH]c1-c1ccccc1)NO [Example 53, 2-[3-(4-Chloro-2-fluoro-3-hydroxy-phenyl)-5-phenyl-1H-pyrazol-4-yl]ethanehydroxamic acid] | 2 | 3 | 61 | 61
N#Cc1cccc(-c2n[nH]c(-c3ccccc3)c2CC(=O)NO)c1 [Example 55, 2-[3-(3-Cyanophenyl)-5-phenyl-1H-pyrazol-4-yl]ethanehydroxamic acid] | 5 | 5 | 335 | 346
COc1ccc(-c2nc3ccccc3n2CC(=O)NO)cc1 [Example 15, 2-[2-(4-Methoxyphenyl)benzimidazol-1-yl]ethanehydroxamic acid] | 94 | 95 | 252 | 257
O=C(Cc1c(-c2ccc(C(=O)O)cc2)n[nH]c1-c1ccc(C(=O)O)cc1)NO [Example 59, 4-[3-(4-Carboxyphenyl)-4-[2-(hydroxyamino)-2-oxo-ethyl]-1H-pyrazol-5-yl]benzoic acid] | 56 | 56 | 116 | 128
O=C(Cc1c(-c2ccccc2)[nH]nc1[C@H]1CC[C@H](C(=O)O)CC1)NO [Example 76, trans-4-[4-[2-(Hydroxyamino)-2-oxo-ethyl]-5-phenyl-1H-pyrazol-3-yl]cyclohexanecarboxylic acid] | 12 | 12 | 98 | 98
O=C(Cc1c(-c2ccc3c(c2)OCO3)n[nH]c1-c1cccc(C(=O)O)c1)NO [Example 61, 3-[3-(1,3-Benzodioxol-5-yl)-4-[2-(hydroxyamino)-2-oxo-ethyl]-1H-pyrazol-5-yl)benzoic acid] | 3 | 3 | 44 | 45
O=C(Cc1c(-c2ccc3c(c2)OCO3)n[nH]c1-c1ccc(C(=O)O)cc1)NO [Example 62, 4-[3-(1,3-Benzodioxol-5-yl)-4-[2-(hydroxyamino)-2-oxo-ethyl]-1H-pyrazol-5-yl)benzoic acid] | 10 | 11 | 93 | 94
